Source: the supplement of paper PMC11061612

Columns and labels:
Test in all cases: combination Emax (second highest fraction inhibited in the dose matrix, 72 h); higher = more inhibition; extreme values may be limits of the assay
[1] = system: D-283MED (Other Solid Carcinomas)
How it was run: (§1)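 Cell lines in DMEM/F12 or RPMI with 10% FBS were plated in 1536-well plates, held 24 hours at 37°C, 5% CO2, then given two-drug dose matrices for 72 hours (DMSO typically 0.2%). Viability was read by CellTiter-Glo 2.0 luminescence and scaled as inhibition from 0 (vehicle wells) to 1 (blank wells). Combination Emax is the second-highest inhibition in the matrix; Bliss excess is observed combination effect minus expected EA + EB − EA·EB, EA and EB being single-agent effects.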

D-392MG (Glioblastoma) = system: D-392MG (Glioblastoma)
How it was run: as §1

[2] = system: DOK (Oral Cavity Carcinoma)
How it was run: as §1

[3] = system: FU-OV-1 (Ovarian Carcinoma)
How it was run: as §1

H4 (Low Grade Glioma) = system: H4 (Low Grade Glioma)
How it was run: as §1

HCC38 (Breast Carcinoma) = system: HCC38 (Breast Carcinoma)
How it was run: as §1

[4] = system: HCT-116 (Colorectal Carcinoma)
How it was run: as §1

[5] = system: MEG-01 (Chronic Myelogenous Leukemia)
How it was run: as §1

MSTO-211H (Mesothelioma) = system: MSTO-211H (Mesothelioma)
How it was run: as §1

[6] = system: NOMO-1 (Acute Myeloid Leukemia)
How it was run: as §1

[7] = system: P31-FUJ (Acute Myeloid Leukemia)
How it was run: as §1

[8] = system: SK-LMS-1 (Other Solid Carcinomas)
How it was run: as §1

SK-MEL-1 (Melanoma) = system: SK-MEL-1 (Melanoma)
How it was run: as §1

[9] = system: SLVL (B-Cell Non-Hodgkin's Lymphoma)
How it was run: as §1

[10] = system: SNG-M (Endometrial Carcinoma)
How it was run: as §1

[11] = system: SW48 (Colorectal Carcinoma)
How it was run: as §1

[12] = system: SW948 (Colorectal Carcinoma)
How it was run: as §1

Saos-2 (Osteosarcoma) = system: Saos-2 (Osteosarcoma)
How it was run: as §1

[13] = system: TC-YIK (Other Solid Carcinomas)
How it was run: as §1

[14] = system: YT (Other Blood Carcinomas)
How it was run: as §1

Structure (SMILES)	combination Emax [1]	combination Emax (D-392MG (Glioblastoma))	combination Emax [2]	combination Emax [3]	combination Emax (H4 (Low Grade Glioma))	combination Emax (HCC38 (Breast Carcinoma))	combination Emax [4]	combination Emax [5]	combination Emax (MSTO-211H (Mesothelioma))	combination Emax [6]	combination Emax [7]	combination Emax [8]	combination Emax (SK-MEL-1 (Melanoma))	combination Emax [9]	combination Emax [10]	combination Emax [11]	combination Emax [12]	combination Emax (Saos-2 (Osteosarcoma))	combination Emax [13]	combination Emax [14]
Cc1c2c(nn1C)CSCc1cc(n(C)n1)CSc1cc(c3ccccc3c1)OCCCc1c(C(=O)O)n(C)c3c-2c(Cl)ccc13 [AZD5991] + CS(=O)(=O)CCNCc1ccc(-c2ccc3ncnc(Nc4ccc(OCc5cccc(F)c5)c(Cl)c4)c3c2)o1 [Lapatinib] (first compound max 1 µM, 7x7, partner max 10 µM)	0.986	0.104	0.987	0.42	0.484	0.366	0.382	0.557	0.193	0.88	0.985	0.265	0.37	0.341	0.177	0.649	0.26	0.497	0.26	1
Cc1c2c(nn1C)CSCc1cc(n(C)n1)CSc1cc(c3ccccc3c1)OCCCc1c(C(=O)O)n(C)c3c-2c(Cl)ccc13 [AZD5991] + Nc1ccn([C@@H]2O[C@H](CO)[C@@H](O)C2(F)F)c(=O)n1 [Gemcitabine] (first compound max 1 µM, 7x7, partner max 0.3 µM)	0.986	0.642	0.684	0.196	0.949	0.711	0.828	0.745	0.861	0.997	0.992	0.83	0.441	0.968	0.882	0.822	0.334		0.877	1
C[C@@H]1COCCN1c1cc(C2([S@](C)(=N)=O)CC2)nc(-c2ccnc3[nH]ccc23)n1 [AZD6738] + C1CC(C1)(C(=O)[O-])C(=O)[O-].N.N.[Pt+2] [Carboplatin] (first compound max 10 µM, 7x7, partner max 10 µM)	0.996	0.423	0.459	0.254	0.708	0.52	0.664	0.923	0.45	0.946	0.922	0.448	0.32	0.659	0.89	0.673	0.566	0.544	0.802	0.76
